Where two headings read alike, the source gives them in different places.
Experiments:
5-HT transporter = target: T1, 5-HT transporter (Rattus norvegicus, UniProt P31652); assay: Inhibition of 5-HT uptake in rat brain synaptosomes; format: biochemical; settings: rat, 1 μM; for inhibition at 1 µM: read-out: Uptake 5-HT, % inhibition
T1 construct: synaptosomes of rat brain areas are freshly isolated; from tissue; host or cells: rat brain synaptosomes (P2 fraction) from marrow and pons

[1] = tested on: batrachotoxin (BTX) binding site of the sodium channel; assay: Affinity to the batrachotoxin (BTX) binding site of the sodium channel; settings: rat cerebrocortex synaptosomes, test concentration not given

T1 sequence (P31652 whole entry): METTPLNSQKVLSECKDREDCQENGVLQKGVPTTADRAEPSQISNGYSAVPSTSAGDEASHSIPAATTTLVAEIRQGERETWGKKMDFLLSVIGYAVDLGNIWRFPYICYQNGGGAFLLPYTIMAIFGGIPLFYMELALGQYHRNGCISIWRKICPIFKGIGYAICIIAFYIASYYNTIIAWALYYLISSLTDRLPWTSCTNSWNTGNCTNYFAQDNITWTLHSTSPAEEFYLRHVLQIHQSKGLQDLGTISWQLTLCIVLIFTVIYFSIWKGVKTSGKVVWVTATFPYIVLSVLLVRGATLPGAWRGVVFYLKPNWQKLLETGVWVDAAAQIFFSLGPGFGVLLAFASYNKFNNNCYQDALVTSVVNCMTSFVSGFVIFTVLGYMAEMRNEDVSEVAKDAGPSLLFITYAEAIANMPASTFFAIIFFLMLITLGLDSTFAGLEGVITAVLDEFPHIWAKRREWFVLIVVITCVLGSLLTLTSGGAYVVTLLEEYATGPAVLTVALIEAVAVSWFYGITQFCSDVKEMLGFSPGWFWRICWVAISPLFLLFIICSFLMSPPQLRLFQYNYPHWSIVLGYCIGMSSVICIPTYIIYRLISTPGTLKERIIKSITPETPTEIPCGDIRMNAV

| Structure (SMILES) | inhibition at 1 µM (5-HT transporter; Table III) [%] | BTX inhibition ([1]; Table III) | also measured |
| --- | --- | --- | --- |
| COc1ccc(CN2C(=O)[C@H](Cc3ccccc3)NC23CCN(C(=O)c2ccc(Cl)cc2)CC3)cc1.Cl (racemic) [Example 27, 3-(S,R)-benzyl-8-(4-chloro-benzoyl)-1-(4-methoxy-benzyl)-1,4,8-triazaspiro[4,5]decan-2-one hydrochloride] | – | – | Uptake 5-HT, rat, 1 μM, % inhibition (5-HT transporter; Table II): 78%; BTX inhibition ([1]; Table II): 79 |
| CCC(CC)C(=O)N1CCC2(CC1)N[C@@H](Cc1ccccc1)C(=O)N2Cc1ccc(OC)cc1.Cl (racemic) [Example 30, 3-(S,R)-benzyl-8-(2-ethylbutyryl)-1-(4-methoxybenzyl)-1,4,8-triazaspiro[4,5]decan-2-one hydrochloride] | – | – | Uptake 5-HT, rat, 1 μM, % inhibition (5-HT transporter; Table II): 42%; BTX inhibition ([1]; Table II): 35 |
| Cl.O=C1[C@H](Cc2ccccc2)NC2(CCNCC2)N1Cc1ccccc1 [Example 38, 1,3-(S)-Dibenzyl-1,4,8-triazaspiro[4,5]decan-2-one hydrochloride] | – | – | inhibition at 1 µM (5-HT transporter; Table II): 94%; BTX inhibition ([1]; Table II): 87 |
| Cl.O=C(c1cccc(F)c1F)N1CCC2(CC1)N[C@@H](Cc1ccccc1)C(=O)N2Cc1ccccc1 [Example 54, 1,3-(S)-dibenzyl-8-(2,3-difluorobenzoyl)-1,4,8-triazaspiro[4,5]decan-2-one hydrochloride] | – | – | inhibition at 1 µM (5-HT transporter; Table II): 81%; BTX inhibition ([1]; Table II): 37 |
| Cl.O=C(CCc1ccccc1)N1CCC2(CC1)N[C@@H](Cc1ccccc1)C(=O)N2Cc1ccccc1 [Example 58, 1,3-(S)-dibenzyl-8-(3-phenylpropionyl)-1,4,8-triazaspiro[4,5]decan-2-one hydrochloride] | – | – | inhibition at 1 µM (5-HT transporter; Table II): 46%; BTX inhibition ([1]; Table II): 46 |
| Cl.O=C(c1ccc2ccccc2c1)N1CCC2(CC1)N[C@@H](Cc1ccccc1)C(=O)N2Cc1ccccc1 [Example 59, 1,3-(S)-dibenzyl-8-(naphthalin-2-carbonyl)-1,4,8-triazaspiro[4,5]decan-2-one hydrochloride] | – | – | inhibition at 1 µM (5-HT transporter; Table II): 53%; BTX inhibition ([1]; Table II): 49 |
| Cl.O=C(c1ccco1)N1CCC2(CC1)N[C@@H](Cc1ccccc1)C(=O)N2Cc1ccccc1 [Example 60, 1,3-(S)-dibenzyl-8-(furan-2-carbonyl)-1,4,8-triazaspiro[4,5]decan-2-one hydrochloride] | – | – | inhibition at 1 µM (5-HT transporter; Table II): 80%; BTX inhibition ([1]; Table II): 39 |
| Cl.O=C(c1ccc(F)cc1)N1CCC2(CC1)N[C@@H](Cc1ccccc1)C(=O)N2Cc1ccccc1 [Example 62, 1,3-(S)-dibenzyl-8-(4-fluorobenzoyl)-1,4,8-triazaspiro[4,5]decan-2-one hydrochloride] | – | – | inhibition at 1 µM (5-HT transporter; Table II): 87%; BTX inhibition ([1]; Table II): 48 |
| CC(C)CC1NC2(CCN(C(=O)c3ccc(-c4ccccc4)cc3)CC2)N(Cc2ccc(F)cc2)C1=O (stereo not drawn) [Example 101, 8-(Biphenyl-4-carbonyl)-1-(4-fluorobenzyl)-3-isobutyl-1,4,8-triazaspiro[4,5]decan-2-one] | 33 | 78 | – |
| O=C(c1ccc(Br)cc1)N1CCC2(CC1)NC(Cc1ccccc1)C(=O)N2Cc1ccccc1 (stereo not drawn) [Example 105, 1,3-Dibenzyl-8-(4-bromobenzoyl)-1,4,8-triazaspiro[4,5]decan-2-one] | 68 | 66 | – |
| CCCCCC(=O)N1CCC2(CC1)NC(C(C)C)C(=O)N2CCCC (stereo not drawn) [Example 129, 1-Butyl-8-hexanoyl-3-isopropyl-1,4,8-triazaspiro[4,5]decan-2-one] | 47 | 30 | – |
| CCSc1ncccc1C(=O)N1CCC2(CC1)NC(Cc1ccccc1)C(=O)N2Cc1ccccc1 (stereo not drawn) [Example 145, 1,3-Dibenzyl-8-(2-ethylsulfanylpyridin-3-carbonyl)-1,4,8-triazaspiro[4,5]decan-2-one] | 89 | 64 | – |
| Cc1onc(-c2c(F)cccc2Cl)c1C(=O)N1CCC2(CC1)NC(=O)C(C(C)C)N2 (stereo not drawn) [Example 149, 8-[3-(2-Chloro-6-fluorophenyl)-5-methylisoxazole-4-carbonyl]-3-isopropyl-1,4,8-triazaspiro[4,5]decan-2-one] | 33 | 33 | – |
| CCCCN1C(=O)C(CCSC)NC12CCN(C(=O)C1COc3ccc(Cl)cc3C1)CC2 (stereo not drawn) [Example 150, 1-Butyl-8-(6-Chloro-2H-chroman-3-carbonyl)-3-(2-methylsulfanylethyl)-1,4,8-triazaspiro[4,5]decan-2-one] | – | 56 | Uptake 5-HT, rat, 1 μM, % inhibition (5-HT transporter; Table III): 72% |
| Cc1nc(C(F)(F)F)ccc1C(=O)N1CCC2(CC1)NC(C(C)C)C(=O)N2CCOc1ccccc1 (stereo not drawn) [Example 167, 3-Isopropyl-8-(2-methyl-6-trifluoromethylpyridin-3-carbonyl)-1-(2-phenoxyethyl)-1,4,8-triazaspiro[4,5]decan-2-one] | 52 | 38 | – |
| Cc1nn(-c2ccccc2)nc1C(=O)N1CCC2(CC1)NC(Cc1ccccc1)C(=O)N2C (stereo not drawn) [Example 168, 3-Benzyl-1-methyl-8-(5-methyl-2-phenyl-2H-[1,2,3]triazole-4-carbonyl)-1,4,8-triazaspiro[4,5]decan-2-one] | 46 | 44 | – |

| Structure (SMILES) | inhibition at 1 µM (5-HT transporter; Table III) [%] | BTX inhibition ([1]; Table III) | also measured |
| --- | --- | --- | --- |
| O=C(c1sccc1Cl)N1CCC2(CC1)NC(Cc1ccccc1)C(=O)N2Cc1ccccc1 (stereo not drawn) [Example 172, 1,3-Dibenzyl-8-(3-chlorothiophene-2-carbonyl)-1,4,8-triazaspiro[4,5]decan-2-one] | 76 | 49 | – |
| CCCCN1C(=O)C(Cc2ccccc2)NC12CCN(C(=O)c1cc(F)ccc1C(F)(F)F)CC2 (stereo not drawn) [Example 175, 3-Benzyl-1-butyl-8-(5-fluoro-2-trifluoromethylbenzoyl)-1,4,8-triazaspiro[4,5]decan-2-one] | 69 | 38 | – |
| COc1ccc(CC(=O)N2CCC3(CC2)NC(Cc2ccccc2)C(=O)N3C)cc1 (stereo not drawn) [Example 176, 3-Benzyl-8-[2-(4-methoxyphenyl)acetyl]-1-methyl-1,4,8-triazaspiro[4,5]decan-2-one] | 37 | 30 | – |
| Cc1nnsc1C(=O)N1CCC2(CC1)NC(Cc1ccccc1)C(=O)N2Cc1ccccc1 (stereo not drawn) [Example 177, 1,3-Dibenzyl-8-(4-methyl[1,2,3]thiadiazole-5-carbonyl)-1,4,8-triazaspiro[4,5]decan-2-one] | 79 | 30 | – |
| CCCCN1C(=O)C(Cc2ccccc2)NC12CCN(C(=O)C1CCCCC1)CC2 (stereo not drawn) [Example 180, 3-Benzyl-1-butyl-8-cyclohexanecarbonyl-1,4,8-triazaspiro[4,5]decan-2-one] | 63 | 42 | – |
| CCCCN1C(=O)C(Cc2ccccc2)NC12CCN(C(=O)CCC1CCCC1)CC2 (stereo not drawn) [Example 188, 3-Benzyl-1-butyl-8-(3-cyclopentylpropionyl)-1,4,8-triazaspiro[4,5]decan-2-one] | 70 | 69 | – |
| COc1ccc(OC)c(CC(=O)N2CCC3(CC2)NC(CCSC)C(=O)N3Cc2ccccc2F)c1 (stereo not drawn) [Example 195, 8-[2-(2,5-Dimethoxyphenyl)acetyl]-1-(2-fluorobenzyl)-3-(2-methylsulfanylethyl)-1,4,8-triazaspiro[4,5]decan-2-one] | 50 | 34 | – |
| CSCCC1NC2(CCN(C(=O)c3cccc(OC(F)(F)F)c3)CC2)N(Cc2cccc(C#N)c2)C1=O (stereo not drawn) [Example 200, 3-[3-(2-Methylsulfanylethyl)-2-oxo-8-(3-trifluoromethoxybenzoyl)-1,4,8-triazaspiro[4,5]dec-1-ylmethyl]benzonitrile] | 45 | 44 | – |
| CN1C(=O)C(Cc2ccccc2)NC12CCN(C(=O)C=Cc1ccccc1Cl)CC2 (stereo not drawn) [Example 203, 3-Benzyl-8-[3-(2-chlorophenyl)acryloyl]-1-methyl-1,4,8-triazaspiro[4,5]decan-2-one] | 34 | 48 | – |
| COC(=O)c1ccc(CN2C(=O)C(C(C)C)NC23CCN(C(=O)c2ccc(C(F)(F)F)c(F)c2)CC3)cc1 (stereo not drawn) [Example 204, Methyl 4-[8-(3-fluoro-4-trifluoromethylbenzoyl)-3-isopropyl-2-oxo-1,4,8-triazaspiro[4,5]dec-1-ylmethyl]benzoate] | 42 | 44 | – |
| CCCCN1C(=O)C(Cc2ccccc2)NC12CCN(C(=O)c1ccc(I)cc1)CC2 (stereo not drawn) [Example 207, 3-Benzyl-1-butyl-8-(4-Iodobenzoyl)-1,4,8-triazaspiro[4,5]decan-2-one] | 76 | 57 | – |
| O=C(CCCOc1ccccc1)N1CCC2(CC1)NC(Cc1ccccc1)C(=O)N2Cc1ccccc1 (stereo not drawn) [Example 209, 1,3-Dibenzyl-8-(4-phenoxybutyryl)-1,4,8-triazaspiro[4,5]decan-2-one] | 69 | 67 | – |
| CC(C)CC1NC2(CCN(C(=O)c3cc(C(C)(C)C)nn3C)CC2)N(Cc2cccc(C#N)c2)C1=O (stereo not drawn) [Example 218, 3-[8-(5-tert-Butyl-2-methyl-2H-pyrazole-3-carbonyl)-3-isobutyl-2-oxo-1,4,8-triazaspiro[4,5]dec-1-ylmethyl]benzonitrile] | 57 | 39 | – |
| CSCCC1NC2(CCN(C(=O)CCC3CCCC3)CC2)N(Cc2ccccc2)C1=O (stereo not drawn) [Example 221, 1-Benzyl-8-(3-cyclopentylpropionyl)-3-(2-methylsulfanylethyl)-1,4,8-triazaspiro[4,5]decan-2-one] | 79 | 36 | – |
| O=C(C=Cc1ccccc1)N1CCC2(CC1)NC(Cc1ccccc1)C(=O)N2Cc1ccccc1 (stereo not drawn) [Example 223, 1,3-Dibenzyl-8-(3-phenylacryloyl)-1,4,8-triazaspiro[4,5]decan-2-one] | 49 | 62 | – |
| CC(C)CC1NC2(CCN(C(=O)c3cc(C(F)(F)F)ccc3Cl)CC2)N(Cc2c(Cl)cccc2Cl)C1=O (stereo not drawn) [Example 326, 8-(2-Chloro-5-trifluoromethylbenzoyl)-1-(2,6-dichlorobenzyl)-3-isobutyl-1,4,8-triazaspiro[4,5]decan-2-one] | – | 68 | – |

Reference: patent US7951815B2, “Substituted 1,4,8-triazaspiro [4,5]decan-2-one compounds” (Gruenenthal GmbH, priority 2004, dated 2011)
